Measurements taken from ChEMBL document CHEMBL1201862, “PubChem BioAssay data set” (2004).
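Step 1: Grow cells in 96-well plates. Step 2: Expose to compound for 48 hours at 5 concentrations. Step 3: Interpolate endpoints linearly; if unreached, use highest concentration. GI50 is the concentration that inhibits growth by half.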 Active and inactive are the calls of the source. Cut-off read from the data, not from the text of the source: active = GI50 up to about 1.1 µM and inactive = higher.

Tests used:
Experiment in all cases: NCI-60 cell line screen, 48 h
[1] = system: XF498
[2] = system: SNB-78
[3] = system: DMS-273
[4] = system: LXFL 529
[5] = system: DLD-1
[6] = system: RXF 631
[7] = system: KM-20L2
[8] = system: HOP-18
[9] = system: DMS-114

| Structure (SMILES) | GI50 [1] | GI50 [2] | GI50 [3] | GI50 [4] | GI50 [5] | GI50 [6] | GI50 [7] | GI50 [8] | GI50 [9] |
| --- | --- | --- | --- | --- | --- | --- | --- | --- | --- |
| CP(C)C.[Ag][I] | 15 µM (inactive) | 28.4 µM (inactive) | > 100 µM (inactive) | 16 µM (inactive) | > 100 µM (inactive) | 24.3 µM (inactive) | > 100 µM (inactive) | 62.8 µM (inactive) | 73.8 µM (inactive) |
| Cc1ccc(C2=Nc3ccccc3SC(c3cccc4c3OCO4)C2)cc1 (stereo not given) | 15.5 µM (inactive) | – | 19.7 µM (inactive) | 15 µM (inactive) | 27.9 µM (inactive) | – | 21.3 µM (inactive) | 13.5 µM (inactive) | – |
| CCc1c(CNc2ccc(C(=O)NC(CC(=O)O)C(=O)O)cc2)ccc2nc(N)nc(N)c12 (stereo not given) | > 100 µM (inactive) | > 60.3 µM (inactive) | < 0.0202 µM (active) | – | < 0.0223 µM (active) | – | 0.451 µM (active) | > 61.9 µM (inactive) | < 0.0262 µM (active) |
| Cc1nc(N)sc1C(=O)/C=C/c1ccc(/C=C/C(=O)c2sc(NC(=O)CCCCCCCCC(=O)Nc3nc(C)c(C(=O)/C=C/c4ccc(/C=C/C(=O)c5sc(N)nc5C)cc4)s3)nc2C)cc1 | > 100 µM (inactive) | 58.5 µM (inactive) | > 100 µM (inactive) | > 100 µM (inactive) | > 100 µM (inactive) | > 100 µM (inactive) | > 100 µM (inactive) | > 100 µM (inactive) | > 100 µM (inactive) |
| COC(=O)C1=C(C(=O)OC)C2(C)OC1C(=O)C21CC1 (stereo not given) | 13.6 µM (inactive) | – | 17.7 µM (inactive) | 19.5 µM (inactive) | 19.1 µM (inactive) | 17.1 µM (inactive) | 23.7 µM (inactive) | – | 20.4 µM (inactive) |
| CC(C)(C)C(=O)OC12/C(=N/O)CCCCCC1c1ccccc12 (stereo not given) | – | 25.1 µM (inactive) | 17.9 µM (inactive) | 16.3 µM (inactive) | 19.5 µM (inactive) | – | 20.2 µM (inactive) | 18.8 µM (inactive) | 19.4 µM (inactive) |
| O=C(O)c1nccnc1C(=O)O | > 100 µM (inactive) | – | > 100 µM (inactive) | > 100 µM (inactive) | > 100 µM (inactive) | > 100 µM (inactive) | > 100 µM (inactive) | – | > 100 µM (inactive) |
| COc1ccc2[nH]cc(CCNC(C)=O)c2c1 [MELATONIN] | > 100 µM (inactive) | > 100 µM (inactive) | > 100 µM (inactive) | > 100 µM (inactive) | > 100 µM (inactive) | – | > 100 µM (inactive) | > 100 µM (inactive) | > 100 µM (inactive) |
| O=C1C2C3SC(c4cc5ccccc5cc43)C2C(=O)N1c1ccccc1 (stereo not given) | – | 84.5 µM (inactive) | > 100 µM (inactive) | 94.6 µM (inactive) | – | > 100 µM (inactive) | > 100 µM (inactive) | > 100 µM (inactive) | > 100 µM (inactive) |
| Cc1cc(NS(=O)(=O)c2ccc(NC(=O)c3ccc(Cl)c4c(Nc5ccc(S(=O)(=O)N=C(N)N)cc5)c5ccccc5nc34)cc2)no1 | 17.6 µM (inactive) | 41.9 µM (inactive) | – | 31.8 µM (inactive) | > 100 µM (inactive) | – | > 100 µM (inactive) | – | 62.4 µM (inactive) |
| CC(C)=CCC/C(C)=C/CC/C(C)=C/Cc1c(O)c2ccccc2oc1=O | – | > 100 µM (inactive) | > 100 µM (inactive) | > 100 µM (inactive) | > 100 µM (inactive) | – | > 100 µM (inactive) | > 100 µM (inactive) | 83.6 µM (inactive) |
| Cc1ccc(C(O)(c2ccc(C)cc2)c2ccccn2)cc1 | – | > 100 µM (inactive) | > 100 µM (inactive) | – | > 100 µM (inactive) | > 100 µM (inactive) | > 100 µM (inactive) | > 100 µM (inactive) | > 100 µM (inactive) |
| CC(=O)OC1C(CCl)OC(N=[N+]=[N-])C(OC(C)=O)C1OC(C)=O (stereo not given) | > 100 µM (inactive) | – | > 100 µM (inactive) | > 10 µM (inactive) | > 100 µM (inactive) | > 100 µM (inactive) | > 100 µM (inactive) | – | > 100 µM (inactive) |
| COc1cccc(/C=C(/C(=O)O)c2cc(OC)c(OC)c(OC)c2)c1 | 37.8 µM (inactive) | > 100 µM (inactive) | > 100 µM (inactive) | > 100 µM (inactive) | > 100 µM (inactive) | > 100 µM (inactive) | > 100 µM (inactive) | > 100 µM (inactive) | > 100 µM (inactive) |
| CCCCNC1=C(C(=O)OCC)C(=O)CO1 | > 100 µM (inactive) | – | > 100 µM (inactive) | > 100 µM (inactive) | > 100 µM (inactive) | – | > 100 µM (inactive) | > 100 µM (inactive) | > 100 µM (inactive) |
